Experimental data published in patent US6900238B1, “HIV protease inhibitors” (The Scripps Research Institute, priority 1995, dated 2005).
Where two headings read alike, the source gives them in different places. Peptide text beside a SMILES is read from it. * marks the point of attachment. Cbz = O=C(OCc1ccccc1)*; NHtBu = CC(C)(C)N*

Legend:
HIV-1 protease [1] = target: T1, HIV-1 protease (Human immunodeficiency virus type 1 group M subtype B, UniProt P03369); assay: HIV protease inhibition, fluorogenic peptide substrate cleavage (IC50 and Ki); type: biochemical; conditions: for IC50: read-out: HIV PR IC50; for Ki: read-out: HIV PR Ki
T1 construct: HIV PR is a 99 amino acid aspartyl protease which functions as a homodimer; made in house; host or cells: no host: total chemical synthesis
Protocol: The solution was mixed and incubated over 5 minutes during which time the rate of substrate cleavage was monitored by continuously recording the change in fluorescence of the assay solution. An excitation filter of 325 nm, and an emission filter of 420 nm were used.
Determination of Ki for HIV protease was performed similarly with the following modifications. The substrate concentrations used were 57, 43, 28 and 14 μM. All other concentrations were as above. The curve fit for the data was determined and the subsequent Ki derived using a computer program based on the equation of Morrison et. al. BioChim. Biophys. ACTA 1969, 185, 269, for tight binding inhibitors.
The synthetic HIV-protease containing a thioester linkage available from CalBiochem (San Diego) can also be used. The enzyme activity was assayed with the fluorogenic substrate Ac-Thr-Ile-Nle-Phe(P—NO2)-Gln-Arg-NH2 (from CalBiochem, San Diego) according to the procedure described in the literature. Inhibition analysis was performed in the presence of the inhibitor and expressed with IC50 (the concentration of inhibitor that causes 50% inhibition of the enzyme activity).

HIV-1 protease [2] = target: T1, HIV-1 protease; conditions: known HIV PR inhibitor; cited from earlier work
FIV protease = target: T2, FIV protease (Feline immunodeficiency virus, UniProt P16088); assay: FIV protease inhibition, peptide substrate cleavage by HPLC (IC50 and Ki); type: biochemical
T2 construct: an 18.6 kDa precursor, which auto-processed to a 13.2 kDa FIV PR plus N- and C-terminal fragments; made in house; host or cells: E. coli BL21.DE3, lys S (pT7-7 vector)
Protocol: For determination of K1 and IC50 for FIV protease, 0.125 μg of the enzyme was added to a solution (100 μL final volume) containing inhibitor, 560 μM peptide substrate (sequence Gly-Lys-Glu-Glu-Gly-Pro-Pro-Gln-Ala-Tyr-Pro-Ile-Gln-Thr-Val-Asn-Gly) and 2% dimethyl sulfoxide in a 1:3 mixture of assay buffer (as above) and 4M NaClaq. solution. The solution was mixed and incubated for 10 minutes at 37° C. and the reaction quenched by addition of 8 M guanidine HCl solution containing 0.2 M sodium acetate at pH 4.2 (100 μL). The cleavage products and substrate were separated by reverse phase HPLC. Absorbance was measured at 215 nm, peak areas were determined and percent conversion to product was calculated using relative peak areas. The data were plotted as 1/V (V=rate substrate is cleaved in nmol/min) against inhibitor concentration and the—Ki determined as the point at which the resulting line intersects with 1/Vmax (Vmax=6.85 nmol/min). IC50 was determined as the inhibitor concentration at 50% inhibition. Vmax (6.85±0.7 nmol min^−1) and Km (707±70 μM) for FIV protease were determined from a plot of 1/V (V=rate in nmol/min) against 1/[S] ([S]=substrate concentration in […]). The data used was generated similarly to that for Ki with the following modifications. The substrate concentrations used were 560, 448, 336, 224, 111 and 56 μM, in the absence of inhibitor.
Purification of FIV protease: A 503 base pair Eco Rl-Bam Hl fragment containing the coding sequence of FIV protease was cloned from FIV-34TF10 (Talbott et. al. Proc. Natl. Acad. Sci. USA 86 1989, 5743) into the pT7-7 vector (Tabor et. al. Proc. Natl. Acad. Sci USA 82 1985, 1074). The 5′ end of the insert was modified by the addition of an Ndel adaptor, which provided the proper reading frame with initiation of translation from the methionine encoded in the latter site. […] The construct was transformed into E. coli strain BL21.DE3, lys S (Studier et. al. Meth. Enzymol. 1990, 185, 60) and overnight cultures were used to inoculate 15 liter fermentations, performed using Circlegrow medium (Bio 101) plus […] ampicillin, 20 μM chloramphenicol, at 37° C. The cells were allowed to reach mid-log phase, then the temperature was reduced to 24° C. and IPTG (isopropylB-thiogalactopyranoside) was added to a final concentration of 1 mM. The fermentation was allowed to proceed for 16 hours, at which time the cells were harvested by centrifugation and frozen at −70° C. in 100 g aliquots for future use.
Cells (100 g) were lysed by addition of 600 mL, 50 mM Tris-HCl, pH 8, 5 mM EDTA and 2 mM 2-mercaptoethanol to the frozen pellet. The cells lysed upon thawing and the viscous mixture was homogenized at 4° C. for 2 min in a Waring blender. The sample was centrifuged at 8,000×g for 20 min and the pellet discarded. […]

[3] = 13C NMR study of hydration of the ketone moiety in the presence of water; type: physicochemical; conditions: deuterated DMSO/D2O (5:1), incubation for 24 hours
Source text: The ketone moiety of the α-keto amide 2 is disclosed to be hydrated and is hydrogen bonding in a similar manner to that of compound 23.

Compound: COC[C@@H]1[C@@H](OC)[C@H](OC)[C@H](COC)N1C(=O)C(=O)C(Cc1ccccc1)NC(=O)OCc1ccccc1 (mixture of isomers) [Compound 12, (3S) and (3R) 3-(N-Benzyloxycarbonyl)amino-2-keto-4-phenylbutyryl-(2′(R), 5′(R)-bis(methoxymethyl]-3′(R), 4′(S)-dimethoxypyrrolidine]]
- IC50 (HIV-1 protease [1]): 20 µM
- Ki (HIV-1 protease [1]): 20 µM

Compound: O=C1N(Cc2ccc(CO)cc2)[C@H](Cc2ccccc2)[C@H](O)[C@@H](O)[C@@H](Cc2ccccc2)N1Cc1ccc(CO)cc1 [DMP 323]
- IC50 (HIV-1 protease [2]): 0.036 µM
- Ki (HIV-1 protease [2]): 0.00027 µM

Compound: CC(C)(C)NC(=O)[C@@H]1C[C@@H](OCc2ccccc2)CN1C[C@@H](O)[C@H](Cc1ccccc1)NC(=O)OCc1ccccc1 [Compound 11]
- IC50 (HIV-1 protease [1]): 3.9 µM

Compound: COCC1CCC(COC)N1CC(O)C(Cc1ccccc1)NC(=O)OCc1ccccc1 [Compound 5, N-[1-Phenyl-2(S)-[(benzyloxycarbonyl)amino]-3(R)-hydroxybutan-4-[2′ (R), 5′ (R)-bis(methoxymethyl)]-pyrrolidine]
- IC50 (HIV-1 protease [1]): 1800 µM

Compound: CC(C)(C)NC(=O)C1CCCN1C(=O)C(Cc1ccccc1)NC(=O)OCc1ccccc1 (stereo not drawn) [Cbz-Phe-Pro-NBu^t] (Cbz-Phe-Pro-NHtBu; configuration not given here)
- cleavage by HIV protease (HIV-1 protease [1]; normal assay conditions): not cleaved
- cleavage by FIV protease (FIV protease; normal assay conditions): not cleaved

Compound: CC(C)(C)NC(=O)[C@@H]1CCCN1C(=O)[C@H](O)[C@H](Cc1ccccc1)NC(=O)OCc1ccccc1 [Compound 23, (2S, 3R) and (2S, 3S) 3-(N-Benzyloxycarbonyl)amino-2-hydroxy-4-phenylbutyryl-L-prolyl-tert-butyl Amide]
- IC50 (HIV-1 protease [1]): 300 µM

Compound: CO[C@H]1CC(C(=O)NC(C)(C)C)N(C[C@@H](O)[C@H](Cc2ccccc2)NC(=O)OCc2ccccc2)C1 (stereo partly drawn) [Compound 9, N-(1-Phenyl-2(S)-[(benzyloxycarbonyl)amino]-3(R)-hydroxybutan-4-(tert-butylamido)-4′(S)-methoxy]-pyrrolidine]
- IC50 (HIV-1 protease [1]): 17 µM

Compound: CC(C)(C)NC(=O)[C@@H]1CCCN1C[C@@H](O)[C@H](Cc1ccccc1)NC(=O)OCc1ccccc1 [Compound 8]
- IC50 (HIV-1 protease [1]): 60 µM

Compound: COC[C@H]1CCCN1C[C@@H](O)[C@H](Cc1ccccc1)NC(=O)OCc1ccccc1 [Compound 7]
- IC50 (HIV-1 protease [1]): 1600 µM

Compound: COC(=O)[C@@H]1CCCN1C(=O)C(=O)C(Cc1ccccc1)NC(=O)OC(C)(C)C (stereo partly shown) [Compound 1]
- IC50 (HIV-1 protease [1]): 6 µM
- Ki (HIV-1 protease [1]): 6 µM

Compound: CSC[C@H](NC(=O)COc1cccc2cnccc12)C(=O)N[C@@H](Cc1ccccc1)[C@H](O)C(=O)N1CSC[C@H]1C(=O)NC(C)(C)C [KNI-272, reference compound]
- Ki against HIV PR relative to compound 2 (HIV-1 protease [1]; compared with 2): almost five orders of magnitude lower

Compound: CC(C)(C)NC(=O)[C@@H]1CCCN1C(=O)C(=O)C(Cc1ccccc1)NC(=O)OCc1ccccc1 (mixture of isomers) [Compound 2, (3S) and (3R) 3-(N-Benzyloxycarbonyl)amino-2-keto-4-phenylbutyryl-L-prolyl-tert-butyl Amide]
- fold better than the corresponding hydroxyethylamine isosteric structure as inhibitor of the HIV protease (HIV-1 protease [1]): approximately 300 fold
- fold better than the corresponding phosphinic acid derivative as inhibitor of the HIV protease (HIV-1 protease [1]): ~1300 fold
- IC50 (HIV-1 protease [1]): 0.7 µM
- Ki (HIV-1 protease [1]): 0.214 µM
- time dependent inhibition of HIV PR (HIV-1 protease [1]; time dependent assays): do not exhibit time dependent inhibition
- inhibitory effect against FIV PR (FIV protease; added in concentrations up to 70 mM): no inhibitory effect
- hydration of the ketone moiety in the presence of water [3]: remains unhydrated

Compound: CC[C@H](C)[C@H](NC(=O)[C@@H]1CCCN1C(=O)C(=O)C(Cc1ccccc1)NC(=O)OCc1ccccc1)C(=O)N[C@@H](CCC(N)=O)C(=O)OC(C)(C)C (mixture of isomers) [Compound 4]
- Ki (HIV-1 protease [1]): 0.154 µM
- IC50 (FIV protease; read-out: FIV PR IC50): 25 µM
- Ki (FIV protease; read-out: FIV PR Ki): 29 µM

Compound: COCC1C(OC)C(OC)C(COC)N1CC(O)C(Cc1ccccc1)NC(=O)OCc1ccccc1 [Compound 6, N-[1-Phenyl-2(S)-[(benzyloxycarbonyl)amino]-3(R)-hydroxybutan-4-[2′(R), 5′(R)-bis(methoxymethyl)-3′(R), 4′(S)-dimethoxy]-pyrrolidine]
- IC50 (HIV-1 protease [1]): 100 µM

Compound: (2S, 3R) and (2S, 3S) 3-(N-Benzyloxycarbonyl)amino-2-hydroxy-4-phenylbutyryl-L-prolyl-tert-butyl Amide [Compound 24]
- IC50 (HIV-1 protease [1]): 2 µM

Compound: CO[C@@H]1C[C@@H](C(=O)NC(C)(C)C)N(C[C@@H](O)[C@H](Cc2ccccc2)NC(=O)OCc2ccccc2)C1 [Compound 10]
- IC50 (HIV-1 protease [1]): 2.9 µM
